“And” between values parts separate entries of the source, which are not always exact repeats. Identical values can stand only once. Like-named read-outs stand apart in the source and are kept apart here.
Legend:
[1] = system: Reconstructed Human Epidermis; assay: In vitro skin irritation: reconstructed human epidermis test (OECD TG 439); assay type: cell-based; set-up: Viability Mean: concentration or dose not given beside the values
Bovine Corneal = assay: Eye irritation: Bovine Corneal Opacity and Permeability Test (OECD TG 437); conditions: positive control, no test concentration printed (/)
From the text: Basis: Bovine Corneal Opacity and Permeability Test, OECD TG 437 (2020).

[2] = Foaming test, modified Ross-Miles method (GB/T7462-1994); assay type: physicochemical; conditions: 2.5 g/L, 50 ± 0.5 °C
Description: Conditions: test solution concentration: 2.5 g/L; test temperature: 50 ± 0.5 °C; test water: soft water/hard water.

With `CCCCCCCCCCCC(=O)N[C@@H](C)C(=O)O.N=C(N)NCCC[C@H](N)C(=O)O` [LA-Arg] as the compound, how does the IL-1α content [1] read?
Its IL-1α content is 3.5 ± 0.38 pg/mL.

What about the “Viability Mean” value [1] of the same compound?
Its value is 97.40%.

Which IL-1α content [1] does the source give for `CCCCCCCCCCCC(=O)NC(C)C(=O)[O-].[Na+]` (stereo not shown) [LA-NaOH] here?
The IL-1α content was 3.88 ± 5.28 pg/mL.

What about the “Viability Mean” value [1] of the same compound?
The value was 86.99%.

What does the source list for `CCCCCCCCCCCC(=O)N[C@@H](C)C(=O)O` [Lauroyl alanine (LA), Lauroyl alanine]?
IL-1α content [1]: 2.07 ± 0.59 pg/mL; Viability Mean [1]: 95.52%

With `CCCCCCCCCCCCOS(=O)(=O)[O-].[Na+]` [Positive control (PC)] as the compound, how does the IL-1α content [1] read?
The IL-1α content was 89.45 ± 10.06 pg/mL.

What about the “Viability Mean” value [1] of the same compound?
Its value is 4.03%.

With `CCO` [Positive control (absolute ethanol), absolute ethanol] as the compound, how does the “In vitro irritancy score (IVIS)” value (Bovine Corneal) read?
Its value is 32.3545.

With `CCCCCCCCCCCCOS(=O)(=O)[O-].[Na+]` [Sodium dodecyl sulfate (K12), Sodium dodecyl sulfate] as the compound, how does the IL-1α content [1] read?
The IL-1α content was 96.26 ± 3.21 pg/mL.

And the “Viability Mean” value ([1]; human)?
The value was 40.79%.

Which results are given for Lauroyl alanine-arginine?
Foam volume at 30 s ([2]; hard water): 570 mL and 580 mL; Foam volume at 3 min ([2]; hard water): 540 mL and 560 mL and 565 mL; Foam volume at 5 min ([2]; hard water): 530 mL and 545 mL and 550 mL; Foam volume at 30 s ([2]; soft water): 380 mL; Foam volume at 3 min ([2]; soft water): 340 mL; Foam volume at 5 min ([2]; soft water): 335 mL

What does the source list for “Sodium laureth sulfate [Sodium laureth sulfate (AES)]”?
IL-1α content [1]: 20.59 ± 5.27 pg/mL; Viability Mean [1]: 57.12%; Foam volume at 30 s ([2]; soft water): 310 mL; Foam volume at 3 min ([2]; soft water): 250 mL; Foam volume at 5 min ([2]; soft water): 210 mL

Which results are given for potassium cocoyl glycinate [GCK30]?
Foam volume at 30 s ([2]; soft water): 430 mL; Foam volume at 3 min ([2]; soft water): 390 mL; Foam volume at 5 min ([2]; soft water): 360 mL

For sodium cocoyl alaninate [ACS30], which “Foam volume at 30 s” value ([2]; soft water) is on record?
Its value is 330 mL.

And the “Foam volume at 3 min” value ([2]; soft water)?
Its value is 200 mL.

And the “Foam volume at 5 min” value ([2]; soft water)?
Its value is 140 mL.

For sodium cocoyl glycinate [GC30], which “Foam volume at 30 s” value ([2]; soft water) is on record?
The value was 460 mL.

And the “Foam volume at 3 min” value ([2]; soft water)?
Its value is 430 mL.

And the “Foam volume at 5 min” value ([2]; soft water)?
Its value is 400 mL.

With sodium cocoylmethyl taurate [CMT-35] as the compound, how does the “Foam volume at 30 s” value ([2]; soft water) read?
Its value is 310 mL.

What about the “Foam volume at 3 min” value ([2]; soft water) of the same compound?
The value was 260 mL.

What about the “Foam volume at 5 min” value ([2]; soft water) of the same compound?
The value was 230 mL.

— patent publication EP4740933A1, “CLEANING COMPOSITION AND USE THEREOF” (Suzhou Oulit Biopharm Co., Ltd., priority 2023, dated 2025)
